This test has as its system TCR-transduced T cells. The test can be described thus: Peptide-pulsed HLA-C*07:02 monoallelic HEK293T granzyme-activated fluorescent reporter cells co-cultured with TCR-transduced T cells. It is filed as cell-based, human. The protocol: Overlapping peptide sequences with a score >2.5 fold were used to predict MHC binding with NetMHC4.0 (available on the World Wide Web at cbs.dtu.dk) and the top predicted MHC binding peptides were synthesized (Genscript). Monoallelic C*07:02 HEK293T reporter cells were pulsed with serial dilutions 0-20,000 ng/ml of each peptide candidate for 1 hour and then co-cultured with TCR-transduced T cells (1-IN-32-39 or HN-32-41) at an E:T ratio of ˜1:1. After 4 hours, the cultures were harvested by pipetting and fluorescence of the reporter was detected using a CytoFLEX™ S instrument (Beckman Coulter). Additionally, monoallelic C*07:02 HEK293 suspension cells were pulsed with serial dilutions 0-500 pM of peptide VBFFFPSL (SEQ ID NO: 1) for 2 hours and then co-cultured with TCR-transduced T cells (HN-32-39 or HN-32-41) at an E:T ratio of 1:1 overnight. Cells were then harvested by pipetting and centrifuged at 2,000 rpm for 2 minutes. The supernatant was collected for IFNγ measurement using a human IFNγ 3rd generation single-plex assay (Protein Simple).

As to “VRFFFPSL (listed as Homo sapiens) [VBFFFPSL]”, the “immunogenicity in peptide validation” value (FIGS. 2D and 2E) is given as “most favorable immunogenicity”. For the same sequence, the “reactivity of the TCR-transduced T cells to peptide-pulsed reporter cells (epitope confirmation)” value (HLA-C*07:02 monoallelic HEK293T, granzyme-activated fluorescent reporter, FIGS. 2D and 2E left) is “minimal MAGEA1 epitope”.

The record behind these values is patent publication US20230270832A1, “MAGEA1 IMMUNOGENIC PEPTIDES, BINDING PROTEINS RECOGNIZING MAGEA1 IMMUNOGENIC PEPTIDES, AND USES THEREOF” (TScan Therapeutics, Inc., priority 2021, published 2023).
